Reference: article PMC5760734, “Development of an oral once-weekly drug delivery system for HIV antiretroviral therapy” (Nature Communications, 2018)
pIC50: −log10 of the molar value. Read-outs that look alike come from different tables or passages of the source.

Key:
[1] = tested on: HIV reference strain NL4-3; set-up: method as in ref 46,55–57 (a number printed in a supplementary file, which may have a reference list of its own: not looked up in the article's list); conditions: wild-type virus; cited from earlier work
[2] = Drug stability in simulated gastric fluid (SGF), HPLC; conditions: SGF pH ~1.2, 37 °C, 24 h, salt forms
Protocol: To determine drug stability at low pH, the drugs were dissolved in methanol to form a concentrated stock solution. Methanol solutions were then diluted 20-fold in simulated gastric fluid, USP without pepsin (pH ~1.2; henceforth referred to as SGF). Drug solutions were then placed in a shaker incubator (New Brunswick™ Innova® 44, Eppendorf, USA) at 37 °C and 150 r.p.m. At various times, aliquots were withdrawn and stored at −20 °C until analysis. Drug concentrations in the solution were analysed using HPLC and reported as percent of the initial concentrations.
The output signal was monitored and processed using ChemStation® software (Agilent Technologies Inc., USA). Chromatographic separation was carried out on a 50 mm × 4.6 mm EC-C18 Agilent Poroshell 120 analytical column with 2.7 µm spherical particles.
The injection volume was 5 µL, and the UV detection wavelength of 260 nm was selected.
For RPV, the stationary phase was maintained at 40 °C. The mobile phase consisted of methanol: water (pH 3.5 adjusted with 0.1% formic acid) (43:57 v/v) at a flow rate of 0.9 mL/min over a 10 min run time. The injection volume was 20 µL, and the UV detector was set at 290 nm.
For CAB, the column was maintained at 45 °C and the optimized mobile phase consisted of acetonitrile: water (pH 3.5 adjusted with 0.1% formic acid) (30:70 v/v) at flow rate of 0.8 mL/min over an 8 min run time. For analysis, 5 µL of the sample was injected on to the column, and the samples were analysed at a wavelength of 260 nm.
For tenofovir alafenamide, the column was maintained at 22 °C. The mobile phase consisted initially of acetonitrile: water (pH 3.5 adjusted with 0.1% formic acid) (100:0 v/v). […] The flow rate was 0.6 mL/min and the run time was 8 min. The injection volume was 10 µL, and the UV detection wavelength of 260 nm was selected.

HIV = tested on: HIV; set-up: method as in ref 2–6 (a number printed in a supplementary file, which may have a reference list of its own: not looked up in the article's list); conditions: monotherapy or dual therapy with rilpivirine, after a two-year follow up; cited from earlier work
[3] = set-up: method as in ref 58 (a number printed in a supplementary file, which may have a reference list of its own: not looked up in the article's list); conditions: cited from earlier work
[4] = Drug release from polymer matrices in SGF; assay type: physicochemical; conditions: for drug released: n = 3
Protocol: Drug loaded polymer matrices were synthesized by melt mixing. Appropriate amounts of drug and polymer were weighed and mixed in a 20 mL glass vial. The vial was then placed in a convection oven at 130 °C to melt the polymer. The mixture was then transferred to a negative mould heated to the same temperature. Once the mould was filled with the melted mixture, it was removed from the oven and cooled at room temperature.
Drug release studies were performed in SGF supplemented with 5%w/w Tween® 20. The drug–polymer matrices were placed in 50 mL release media at 37 °C in an incubator shaker at 150 r.p.m. At various times, about 1 mL of the media was collected and stored at −20 °C until further analysis. The rest of the media was discarded and the drug–polymer matrix was placed in fresh media. Drug concentrations in the aliquots were measured using HPLC as described previously.

[5] = tested on: drug-resistant HIV strains; conditions: cited from earlier work

C[C@@H]1CCO[C@H]2Cn3cc(C(=O)NCc4ccc(F)cc4F)c(=O)c(O)c3C(=O)N12 [DTG, dolutegravir]
pIC50 [1]: 7.15 | m (slope parameter of Hill curve) [1]: 1.2 | stability in SGF [2]: stable | patients with plasma viremia levels of <50 copies/mL (HIV): > 95 % patients | Half-life, τ1/2 [3]: 14 h | Cmax ([3]; maximum plasma concentration at steady state, perfect adherence): 8.75 µM | drug released ([4]; PCL matrix, over a week): 5% | total drug release from poly(anhydrides) relative to PCL ([4]; poly(anhydride) matrices vs PCL): 4–8 fold | drug released ([4]; poly(ethylene glycol) matrix, within the first 6 h): 60–70% | Fold change in IC50 (ρ) ([5]; mutation E138K/Q148K): 19.00 | Fold change in IC50 (ρ) ([5]; mutation E138K): 0.40 | Fold change in IC50 (ρ) ([5]; mutation E157Q/R263K): 19.90 | Fold change in IC50 (ρ) ([5]; mutation E157Q): 0.01 | Fold change in IC50 (ρ) ([5]; mutation G140S/Q148R): 7.98 | Fractional change in slope (σ) ([5]; mutation G140S/Q148R): 0.01 | Fold change in IC50 (ρ) ([5]; mutation G140S): 0.76 | Fractional change in slope (σ) ([5]; mutation G140S): -0.01 | Fold change in IC50 (ρ) ([5]; mutation H51Y/R263K): 6.95 | Fold change in IC50 (ρ) ([5]; mutation H51Y): 1.25 | Fold change in IC50 (ρ) ([5]; mutation M50I/R263K): 15.59 | Fold change in IC50 (ρ) ([5]; mutation M50I): 1.94 | Fold change in IC50 (ρ) ([5]; mutation N155H): 1.96 | Fold change in IC50 (ρ) ([5]; mutation Q148K): 1.10 | Fold change in IC50 (ρ) ([5]; mutation Q148R/N155H): 10.00 | Fold change in IC50 (ρ) ([5]; mutation Q148R): 1.20 | Fold change in IC50 (ρ) ([5]; mutation R263K): 2.00
